# Experimental data: patent publication US20150087657A1, “MULTICOMPONENT CRYSTALLINE SYSTEM OF VORICONAZOLE WITH FUMARIC ACID” (BASF SE, priority 2011, published 2015)
# Assay: Solubility determination of vrx and vrx-co-crystals in water
# Type: physicochemical
# Conditions: 37° C.
# Method: Solubility determinations of the vrx (free drug substance), the vrx-fumaric acid co-crystal and the vrx-L-tartaric acid co-crystal described in the below comparative example are carried out as follows. To 20 mg of a solid sample, 5.0 ml water is added and the mixture is placed on a laboratory shaker at 500 rpm at 37° C. After 24 hours, a small sample of about 1.0 ml is recovered with a syringe and filtered through a 0.1 micrometer PVDF Millipore filtration unit. This sample is appropriately diluted and the concentration is determined by HPLC.
"solubility at 24 h (thermodynamic from solid, equilibration time 24 h, 20 mg solid in 5.0 ml, HPLC, value refers to Voriconazole) [µg/mL]",Compound,"aqueous solubility higher than the free drug substance and the L-tartaric acid co-crystal (24 h, relative to table 4 comparators)","Solubility of Voriconazole (equilibration time 24 h, 20 mg solid in 5.0 ml, HPLC, value refers to Voriconazole) [µg/mL]"
–,CC(c1ncncc1F)C(O)(Cn1cncn1)c1ccc(F)cc1F.O=C(O)C=CC(=O)O (stereo not drawn) [Co-crystal with fumaric acid],about 30%,1300
1010,"C[C@@H](c1ncncc1F)[C@](O)(Cn1cncn1)c1ccc(F)cc1F [Voriconazole free drug, (2R,3S)-2-(2,4-difluorophenyl)-3-(5-fluoropyrimidin-4-yl)-1-(1H-1,2,4-triazol-1-yl)butan-2-ol, reference compound]",–,–
